biological target: PDE10A (Homo sapiens (Human), UniProt Q9Y233); experiment: Measurement of PDE activity (recombinant PDE, cAMP HTRF); type: biochemical; details: 20 nM cyclic nucleotide substrate, 60 minutes at 29 C
Method: a) Measurement of PDE Activity
The recombinant PDE proteins are used in in vitro enzymatic reaction for measurement of PDE activity. These recombinant proteins, including PDE10A (human, rat and mouse PDE10) and isoforms of PDEs 1, 3, 4, and 5, were purchased from commercial vendor BPS Bioscience. The enzymatic activity of PDEs was determined by cAMP measurement kit from CisBio (IBA) using HTRF technology.
The PDE enzymatic reaction was carried out in assay buffer (20 mM Tris-HCl pH7.5, 10 mM MgCl2, 0.1% bovine serum albumin) containing enzyme and substrate. […] The substrate cyclic nucleotide (cAMP or cGMP) concentration used in the assay was 20 nM for PDE10, and 100 nM for other PDEs. The inhibitory effect of compound was determined by incubating various concentration of inhibitor in the enzymatic assay. […] Next, the compound at varying concentration was mixed with PDE enzyme. The reaction was initiated by addition of cyclic nucleotide substrate, and incubated for 60 minutes at 29 C. The reaction was stopped by addition of lysis buffer from assay kit. The cAMP-d2 and anti-cAMP cryptate in the lysis buffer detected the level of cAMP left from the PDE hydrolysis reaction. […] Thus, IC50 value of inhibitor can be obtained by plotting inhibitor concentration against PDE activity at that concentration.

Sequence of PDE10A (Q9Y233 whole entry, species assumed): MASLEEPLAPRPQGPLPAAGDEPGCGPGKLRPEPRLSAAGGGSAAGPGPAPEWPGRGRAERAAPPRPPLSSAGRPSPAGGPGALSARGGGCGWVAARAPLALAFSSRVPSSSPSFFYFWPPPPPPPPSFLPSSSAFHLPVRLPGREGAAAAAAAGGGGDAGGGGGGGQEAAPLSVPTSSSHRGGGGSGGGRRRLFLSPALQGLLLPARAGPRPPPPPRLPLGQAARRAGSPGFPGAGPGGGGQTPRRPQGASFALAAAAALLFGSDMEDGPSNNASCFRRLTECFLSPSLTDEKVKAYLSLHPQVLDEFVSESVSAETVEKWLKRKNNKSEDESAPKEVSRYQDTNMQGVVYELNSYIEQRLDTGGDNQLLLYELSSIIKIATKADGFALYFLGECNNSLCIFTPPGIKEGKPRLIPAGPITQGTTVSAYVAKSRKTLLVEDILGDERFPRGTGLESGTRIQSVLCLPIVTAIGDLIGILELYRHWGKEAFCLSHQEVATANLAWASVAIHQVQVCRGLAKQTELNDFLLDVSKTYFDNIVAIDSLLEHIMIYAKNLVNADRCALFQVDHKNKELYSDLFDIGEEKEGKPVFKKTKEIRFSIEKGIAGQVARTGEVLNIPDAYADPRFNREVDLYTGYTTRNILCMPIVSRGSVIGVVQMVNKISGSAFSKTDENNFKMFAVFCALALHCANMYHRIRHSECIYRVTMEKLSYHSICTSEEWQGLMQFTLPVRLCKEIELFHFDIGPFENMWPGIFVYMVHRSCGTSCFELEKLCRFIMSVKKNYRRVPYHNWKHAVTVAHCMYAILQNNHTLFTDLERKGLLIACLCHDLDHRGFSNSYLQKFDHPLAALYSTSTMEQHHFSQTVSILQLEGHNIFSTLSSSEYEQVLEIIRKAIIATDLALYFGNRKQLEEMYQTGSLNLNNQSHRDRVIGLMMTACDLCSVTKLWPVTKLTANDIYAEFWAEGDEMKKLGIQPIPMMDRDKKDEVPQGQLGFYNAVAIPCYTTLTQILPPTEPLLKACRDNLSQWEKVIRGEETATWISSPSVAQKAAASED

Structure (SMILES)	IC50 [nM]
CCCCNC(=O)c1cn(CC)c(=O)c2cc(OC)c(OC)cc12 [Example 1, 2-Ethyl-6,7-dimethoxy-1-oxo-1,2-dihydro-isoquinoline-4-carboxylic acid butylamide]	100 to 200
CCC(C)CNC(=O)c1cn(CC)c(=O)c2cc(OC)c(OC)cc12 (centres unmarked) [Example 20, 2-Ethyl-6,7-dimethoxy-1-oxo-1,2-dihydro-isoquinoline-4-carboxylic acid (2-methyl-butyl)-amide]	200 to 500
CCn1cc(C(=O)NC(C)CC(C)C)c2cc(OC)c(OC)cc2c1=O (centres unmarked) [Example 23, 2-Ethyl-6,7-dimethoxy-1-oxo-1,2-dihydro-isoquinoline-4-carboxylic acid (1,3-dimethyl-butyl)-amide]	200 to 500
CCn1cc(C(=O)NCC2CCCCC2)c2cc(OC)c(OC)cc2c1=O [Example 28, 2-Ethyl-6,7-dimethoxy-1-oxo-1,2-dihydro-isoquinoline-4-carboxylic acid cyclohexylmethyl-amide]	200 to 500
CCn1cc(C(=O)NCc2ccc(F)cc2)c2cc(OC)c(OC)cc2c1=O [Example 32, 2-Ethyl-6,7-dimethoxy-1-oxo-1,2-dihydro-isoquinoline-4-carboxylic acid 4-fluoro-benzylamide]	200 to 500
CCn1cc(C(=O)NCc2ccc(F)cc2F)c2cc(OC)c(OC)cc2c1=O [Example 34, 2-Ethyl-6,7-dimethoxy-1-oxo-1,2-dihydro-isoquinoline-4-carboxylic acid 2,4-difluoro-benzylamide]	200 to 500
CCn1cc(C(=O)NCc2c(F)cccc2F)c2cc(OC)c(OC)cc2c1=O [Example 35, 2-Ethyl-6,7-dimethoxy-1-oxo-1,2-dihydro-isoquinoline-4-carboxylic acid 2,6-difluoro-benzylamide]	200 to 500
CCn1cc(C(=O)NCc2cc(F)cc(F)c2)c2cc(OC)c(OC)cc2c1=O [Example 37, 2-Ethyl-6,7-dimethoxy-1-oxo-1,2-dihydro-isoquinoline-4-carboxylic acid 3,5-difluoro-benzylamide]	100 to 200
CCC(CC)n1cc(C(=O)NC2CCc3ccccc32)c2cc(OC)c(OC)cc2c1=O (centres unmarked) [Example 135, 2-(1-Ethyl-propyl)-6,7-dimethoxy-1-oxo-1,2-dihydro-isoquinoline-4-carboxylic acid indan-1-ylamide]	< 100
CCn1cc(C(=O)Nc2ccccc2OC)c2cc(OC)c(OC)cc2c1=O [Example 146, 2-Ethyl-6,7-dimethoxy-N-(2-methoxyphenyl)-1-oxo-1,2-dihydroisoquinoline-4-carboxamide]	200 to 500
CCn1cc(C(=O)NCc2cccnc2)c2cc(OC)c(OC)cc2c1=O [Example 148, 2-Ethyl-6,7-dimethoxy-1-oxo-N-(pyridin-3-ylmethyl)-1,2-dihydroisoquinoline-4-carboxamide]	200 to 500
CCn1cc(C(=O)NCc2ccccn2)c2cc(OC)c(OC)cc2c1=O [Example 149, 2-Ethyl-6,7-dimethoxy-1-oxo-N-(pyridin-2-ylmethyl)-1,2-dihydroisoquinoline-4-carboxamide]	200 to 500
CCn1cc(C(=O)Nc2ccccc2)c2cc(OC)c(OC)cc2c1=O [Example 151, 2-Ethyl-6,7-dimethoxy-1-oxo-N-phenyl-1,2-dihydroisoquinoline-4-carboxamide]	200 to 500
CCn1cc(C(=O)NCc2ccc(OC)cc2)c2cc(OC)c(OC)cc2c1=O [Example 152, 2-Ethyl-6,7-dimethoxy-N-(4-methoxybenzyl)-1-oxo-1,2-dihydroisoquinoline-4-carboxamide]	200 to 500
CCn1cc(C(=O)NCc2ccccc2C)c2cc(OC)c(OC)cc2c1=O [Example 154, 2-Ethyl-6,7-dimethoxy-N-(2-methylbenzyl)-1-oxo-1,2-dihydroisoquinoline-4-carboxamide]	100 to 200
CCn1cc(C(=O)Nc2ccc(F)cc2)c2cc(OC)c(OC)cc2c1=O [Example 156, 2-Ethyl-N-(4-fluorophenyl)-6,7-dimethoxy-1-oxo-1,2-dihydroisoquinoline-4-carboxamide]	200 to 500
CCn1cc(C(=O)NCc2ccccc2Cl)c2cc(OC)c(OC)cc2c1=O [Example 162, N-(2-Chlorobenzyl)-2-ethyl-6,7-dimethoxy-1-oxo-1,2-dihydroisoquinoline-4-carboxamide]	200 to 500
CCn1cc(C(=O)NC2CCc3ccc(C)cc32)c2cc(OC)c(OC)cc2c1=O (centres unmarked) [Example 167, 2-Ethyl-6,7-dimethoxy-N-(6-methyl-2,3-dihydro-1H-inden-1-yl)-1-oxo-1,2-dihydroisoquinoline-4-carboxamide]	200 to 500
CCn1cc(C(=O)NCc2ccccc2CN2CCOCC2)c2cc(OC)c(OC)cc2c1=O [Example 168, 2-Ethyl-6,7-dimethoxy-N-(2-(morpholinomethyl)benzyl)-1-oxo-1,2-dihydroiso-quinoline-4-carboxamide]	200 to 500
CCn1cc(C(=O)NC2CCc3c(F)cccc32)c2cc(OC)c(OC)cc2c1=O (centres unmarked) [Example 173, 2-Ethyl-N-(4-fluoro-2,3-dihydro-1H-inden-1-yl)-6,7-dimethoxy-1-oxo-1,2-dihydroisoquinoline-4-carboxamide]	200 to 500

Next, values leading:

IC50 [nM]	Structure (SMILES)
200 to 500	CCCC(C)NC(=O)c1cn(CC)c(=O)c2cc(OC)c(OC)cc12 (centres unmarked) [Example 15, 2-Ethyl-6,7-dimethoxy-1-oxo-1,2-dihydro-isoquinoline-4-carboxylic acid (1-methyl-butyl)-amide]
200 to 500	CCCCCNC(=O)c1cn(CC)c(=O)c2cc(OC)c(OC)cc12 [Example 21, 2-Ethyl-6,7-dimethoxy-1-oxo-1,2-dihydro-isoquinoline-4-carboxylic acid pentylamide]
200 to 500	CCn1cc(C(=O)NCCC(C)(C)C)c2cc(OC)c(OC)cc2c1=O [Example 24, 2-Ethyl-6,7-dimethoxy-1-oxo-1,2-dihydro-isoquinoline-4-carboxylic acid (3,3-dimethyl-butyl)-amide]
100 to 200	CCn1cc(C(=O)NCc2ccccc2)c2cc(OC)c(OC)cc2c1=O [Example 26, 2-Ethyl-6,7-dimethoxy-1-oxo-1,2-dihydro-isoquinoline-4-carboxylic acid benzylamide]
200 to 500	CCn1cc(C(=O)NC(C)c2ccccc2)c2cc(OC)c(OC)cc2c1=O (centres unmarked) [Example 29, 2-Ethyl-6,7-dimethoxy-1-oxo-1,2-dihydro-isoquinoline-4-carboxylic acid (1-phenyl-ethyl)-amide]
200 to 500	CCn1cc(C(=O)NCc2ccccc2F)c2cc(OC)c(OC)cc2c1=O [Example 30, 2-Ethyl-6,7-dimethoxy-1-oxo-1,2-dihydro-isoquinoline-4-carboxylic acid 2-fluoro-benzylamide]
200 to 500	CCn1cc(C(=O)NCc2cccc(F)c2)c2cc(OC)c(OC)cc2c1=O [Example 31, 2-Ethyl-6,7-dimethoxy-1-oxo-1,2-dihydro-isoquinoline-4-carboxylic acid 3-fluoro-benzylamide]
200 to 500	CCn1cc(C(=O)NCc2cccc(F)c2F)c2cc(OC)c(OC)cc2c1=O [Example 33, 2-Ethyl-6,7-dimethoxy-1-oxo-1,2-dihydro-isoquinoline-4-carboxylic acid 2,3-difluoro-benzylamide]
100 to 200	CCn1cc(C(=O)NCc2ccc(F)c(F)c2)c2cc(OC)c(OC)cc2c1=O [Example 36, 2-Ethyl-6,7-dimethoxy-1-oxo-1,2-dihydro-isoquinoline-4-carboxylic acid 3,4-difluoro-benzylamide]
200 to 500	CCn1cc(C(=O)N2Cc3ccccc3C2)c2cc(OC)c(OC)cc2c1=O [Example 51, 4-(1,3-Dihydro-isoindole-2-carbonyl)-2-ethyl-6,7-dimethoxy-2H-isoquinolin-1-one]
< 100	CCn1nc(C(=O)NC2CCc3ncccc32)c2cc(OC)c(OC)cc2c1=O (centres unmarked) [Example 129, 3-Ethyl-6,7-dimethoxy-4-oxo-3,4-dihydro-phthalazine-1-carboxylic acid (6,7-dihydro-5H-[1]pyrindin-5-yl)-amide]
200 to 500	CCn1cc(C(=O)NCc2ccncn2)c2cc(OC)c(OC)cc2c1=O [Example 139, 2-Ethyl-6,7-dimethoxy-1-oxo-N-(pyrimidin-4-ylmethyl)-1,2-dihydroisoquinoline-4-carboxamide]
200 to 500	CCn1cc(C(=O)NCc2ccccc2OC)c2cc(OC)c(OC)cc2c1=O [Example 140]
100 to 200	CCn1cc(C(=O)NCc2cccc(Cl)c2)c2cc(OC)c(OC)cc2c1=O [Example 142, N-(3-Chlorobenzyl)-2-ethyl-6,7-dimethoxy-1-oxo-1,2-dihydroisoquinoline-4-carboxamide]
200 to 500	CCn1cc(C(=O)Nc2cccc(C)c2)c2cc(OC)c(OC)cc2c1=O [Example 145, 2-Ethyl-6,7-dimethoxy-1-oxo-N-m-tolyl-1,2-dihydroisoquinoline-4-carboxamide]
100 to 200	CCn1cc(C(=O)NCc2cccc(C)c2)c2cc(OC)c(OC)cc2c1=O [Example 153]
200 to 500	CCn1cc(C(=O)Nc2ccncc2)c2cc(OC)c(OC)cc2c1=O [Example 164, 2-Ethyl-6,7-dimethoxy-1-oxo-N-(pyridin-4-yl)-1,2-dihydroisoquinoline-4-carboxamide]
200 to 500	CCn1cc(C(=O)NC2CCc3cc(Cl)ccc32)c2cc(OC)c(OC)cc2c1=O (centres unmarked) [Example 169, N-(5-Chloro-2,3-dihydro-1H-inden-1-yl)-2-ethyl-6,7-dimethoxy-1-oxo-1,2-dihydroisoquinoline-4-carboxamide]
